Values after ≈ are worked out from the molar mass of the structure shown. Where two headings read alike, the source gives them in different places.
Assays:
[1] = test system: B16BL6-induced aggregation; test: Test of Inhibition of Platelet Aggregation Caused by Cancer Cells (ex vivo), B16BL6; assay type: in vivo, C57BL/6 mouse; conditions: 1 mg/kg or more, i.v. or oral
Description: The compound of the invention (dihydrochloride monohydrate) dissolved in a physiological saline solution (J.P.) was intravenously or orally administered to a 7-week-old C57BL/6 male mouse (body weight: about 20 g). Three minutes after the intravenous administration or 1 hour later from the oral administration, blood was taken from the abdominal vein into a syringe containing 1/10 volume of a 3.13% aqueous solution of sodium citrate dihydrate and PRP was prepared as described before in Test Example 6. The PRP was placed in a reaction tube under the same conditions as in Test Example 6, and 5 μl of a 200 mM calcium chloride aqueous solution was added thereto. One minute later, 50 μl of a B16BL6 (5×10^4 cells/50 μl)- or a 3LL (2×10^6 cells/50 μl)-cell suspension was added to the system. In the same manner as in Test Example 6, platelet aggregation was determined.

[2] = test system: platelet aggregation due to addition of 3LL cells; test: Test of Inhibition of Platelet Aggregation Caused by Cancer Cells (in vitro), 3LL; assay type: cell-based, C57BL/6 mouse
Description: Blood was taken from the abdominal vein of a 7-week-old C57BL/6 male mouse into a syringe containing 1/10 volume of a 3.13% aqueous solution of sodium citrate dihydrate as an anticoagulant. The thus prepared citrated blood sample was centrifuged at 230×g at room temperature for 7 minutes. The resulting supernatant fluid was used as PRP. The remainder was further centrifuged at 1,500×g at room temperature for 10 minutes, and the supernatant fluid was used as platelet-poor-plasma (PPP). Platelet count in PRP was adjusted to 450,000 per mm^3 by PPP. A 450 μl of PRP was placed in a reaction tube and subjected to centrifugation at 950 rpm at 30° C. About 1 minute later while continuing the centrifugation, 5 μl of a 200 mM calcium chloride aqueous solution was added to the system to a final concentration of […]. 30 seconds later, 5 μl of a saline solution of the compound (I) (dihydrochloride monohydrate) was added to the system, and additional 30 seconds later, 50 μl of a cell suspension containing 1×10^5 cells of B16 melamona BL6 (B16BL6) originated in a C57BL mouse or 50 μl of a cell suspension containing 1×10^6 cells of Lewis lung cancer (3LL) originated in a C57BL mouse was added thereto. Platelet aggregation of the sample system was determined from changes in transmittancy by use of an aggregometer. […]

[3] = test system: B16BL6-Induced Acute Pulmonary Embolism; test: Test of Inhibition of Death by Acute Pulmonary Embolism; assay type: in vivo, C57BL/6 mouse
Description: The compound of the present invention (dihydrochloride monohydrate) was dissolved in a physiological saline solution (J.P.) and intravenously administered to the tail vein of a 5-week-old (C57BL/6 male mouse (body weight: about 18.5 g) at a dose of 10 mg/kg or 30 mg/kg. After 3 minutes, 5×10^5 cells of B16BL6 were intravenously inoculated to the tail vein. The death ratios 3 and 10 minutes after the inoculation are shown in Table 6.

3LL = test: Test of Inhibition on Pulmonary Metastasis, 3LL; assay type: in vivo, C57BL/6 mouse; conditions: day 11, mean ± standard error
Description: (§1) 1×10^5 cells/animal of B16BL6 or 7×10^5 cells/animal of 3LL were inoculated to the tail vein of 10 to 12 6-week-old C57BL/6 male mice per group (body weight: about 18.5 g). The compound (I) (dihydrochloride monohydrate) dissolved in a physiological saline solution (J.P.) was administered to each animal at a dose of 1, 3 or 10 mg/kg orally 24 hours, 1 hour before and 1 hour after the inoculation, or intravenously immediately before the inoculation. On the 13th day from the inoculation of B16BL6 or 11th day from the inoculation of 3LL, the number of metastatic nodules in the lungs was counted using an operating microscope.

B16BL6 = test: Test of Inhibition on Pulmonary Metastasis, B16BL6; assay type: in vivo, C57BL/6 mouse; conditions: day 13, mean ± standard error
Description: as §1

[4] = Solubility Test (water-solubility); assay type: physicochemical
[5] = LD50 (probit method), rat; conditions: in vivo, iv
platelet aggregation = test: Test of Platelet Aggregation Inhibition (in vitro), rat PRP; assay type: cell-based, rat (Wistar Imamichi); conditions: rat blood, read-out: Platelet Aggregation Inhibitory Activity (in vitro: IC50)
Description: The test was performed as follows in accordance with the method of Ashida et al, Thrombosis and Haemostasis, Vol. 40, p542 (1979).
Blood was taken by puncture from the heart of a Wistar Imamichi rat under anesthesia with pentobarbital into a syringe containing 1/10 volume of a 3.13% aqueous solution of sodium citrate dihydrate, and the citrated blood was centrifuged to obtain a platelet-rich-plasma (PRP). In the same manner, citrated blood was collected from the vein of a healthy human who had not taken aspirin or any other anti-inflammatory agent since before 10 days, followed by centrifugation to obtain PRP. 0.005 ml of each test compound was added to 0.445 ml each of these PRP samples, and the system was warmed at 30° C. for 1 minute. 0.05 ml of an aggregation inducer (ADP or collagen) was then added thereto, and platelet aggregation was determined according to the method of Born, Nature, Vol. 194, p927 (1962). The inhibitory activity of platelet aggregation was expressed in terms of 50% inhibition concentration, and the results obtained are shown in Table 2.

## O=C1CN2Cc3cc(N4CCCCC4)ccc3N=C2N1 [Compound (I), 7-piperidino-1,2,3,5-tetrahydroimidazo[2,1-b]quinazolin-2-one]
[1]
  inhibition of B16BL6-induced aggregation (ex vivo): completely inhibited
[2]; 0.3 μM
  inhibition of platelet aggregation due to addition of 3LL cells: partially inhibited
[2]; final concentration of 1 μM or more
  inhibition of platelet aggregation due to addition of 3LL cells: completely inhibited
[3]; i.v. 10 mg/kg, after 3 min
  Number of Dead Animals/Number of Tested Animals: 2/9
[3]; i.v. 10 mg/kg, after 10 min
  Number of Dead Animals/Number of Tested Animals: 4/9
[3]; i.v. 30 mg/kg, after 3 min
  Number of Dead Animals/Number of Tested Animals: 1/9
[3]; i.v. 30 mg/kg, after 10 min
  Number of Dead Animals/Number of Tested Animals: 4/9
3LL; 1 mg/kg
  Number of Metastatic Nodules in the Lungs: 15.4 ± 2.8
3LL; 3 mg/kg
  Number of Metastatic Nodules in the Lungs: 5.9 ± 1.3
3LL; 10 mg/kg
  Number of Metastatic Nodules in the Lungs: 4.0 ± 1.1
B16BL6; 1 mg/kg
  Number of Metastatic Nodules in the Lungs: 5.5 ± 1.1
B16BL6; 3 mg/kg
  Number of Metastatic Nodules in the Lungs: 5.3 ± 1.1
B16BL6; 10 mg/kg
  Number of Metastatic Nodules in the Lungs: 6.4 ± 1.1
[4]; Water at pH 4
  solubility: 4.1 mg/mL (≈ 15.2 mM)
[4]; pH 2, Tap Water, solution pH about 2
  solubility: 270 mg/mL (≈ 999 mM)
[5]; female Wistar rat
  LD50: 219 mg/kg
[5]; male Wistar rat
  LD50: 232 mg/kg
Platelet aggregation; inducer ADP
  IC50: 3.8 µM
Platelet aggregation; inducer collagen
  IC50: 0.33 µM

— patent US4596806A, “7-piperidino-1,2,3,5-tetrahydroimidazo[2,1-b]-quinazolin-2-one having platelet aggregation inhibitory activity” (Daiichi Seiyaku Co., Ltd., priority 1983, dated 1986)
